Results taken from patent publication US10617693B2, “Methods of treating and/or preventing actinic keratosis” (Athenex, Inc., priority 2017, dated 2020).

Test system: subjects with AK on the face or scalp
Test: Phase 2a study KX01-AK-002: local skin reactions (grade 0 not present to 4 worst) and adverse events, 0.5 mg KX-01 on 25 cm^2
Assay type: in vivo, human
From the text: An ongoing Phase 2a, open-label, multicenter, activity and safety study of KX-01 administered topically in subjects with AK on the face or scalp is described herein. […] Secondary objectives are to assess the activity of KX-01 administered topically during Days 1-57 based on reduction of AK lesion counts from baseline, assess the safety and tolerability and pharmacokinetics, and contrast the dose regimens (5-day treatment with 3-day treatment) in terms of activity and safety in subjects with AK on the face or scalp. This uncontrolled, nonrandomized trial is being conducted at 16 investigational sites in the United States. Enrollment is sequential for 2 cohorts of approximately 80 subjects each. Enrollment is closed for Cohort 1 and ongoing for Cohort 2. The two treatment cohorts are summarized below: • Cohort 1: 0.5 mg KX-01 administered topically to a contiguous treatment area of 25 cm^2 with 4-8 clinically typical AK lesions for 5 consecutive days • Cohort 2: 0.5 mg KX-01 administered topically to a contiguous treatment area of 25 cm^2 with 4-8 clinically typical AK lesions for 3 consecutive days
0.5 mg KX-01 is administered topically to an area of 25 cm^2 on the face or scalp by site staff on treatment days. […] AK lesion counts are recorded at baseline, days 8, 15, 29, and 57. […] Standardized photography of treatment area is performed at baseline, day 8 and day 57. Plasma samples are being collected at preplanned time points on days 1 and 5 for Cohort 1, and on days 1 and 3 for Cohort 2.
Absence or presence of hyperpigmentation, hypopigmentation and scarring are also assessed. Application site reactions not classified as LSRs are reported as AEs. […] LSRs and AEs are reported separately. All LSRs, pigmentation, and scarring in the treatment area will be followed to resolution or stabilization.
The range of possible composite scores is 0-24.
The Phase 2a trial described in Example 2a was completed with 84 eligible subjects enrolled in each of two cohorts: one cohort was subjected to the treatment for 5 consecutive days, and the other cohort was subjected to the treatment for 3 consecutive days. The results are described below and in FIG. 5.

[1] = Cohort 1 (5-day), 67 subjects with day 57 visit

O=C(Cc1ccc(-c2ccc(OCCN3CCOCC3)cc2)cn1)NCc1ccccc1 [KX-01]
Subjects with no LSR in the treatment area throughout the study [1]: 7
Subjects with vesiculation/pustulation [1]: Three
Number of TEAEs considered related to KX-01 (Cohort 1 (5-day), N=82): 12
Subjects reporting TEAEs considered related to KX-01 (Cohort 1 (5-day), N=82): Seven
Total number of TEAEs (Cohort 1 (5-day), N=82): 54
Cases of application site reaction (Cohort 1 (5-day), N=82, mild tenderness, stinging, pruritus): 6
Subjects whose LSRs had not returned to baseline at day 57 (Cohort 1 (5-day), of 60 subjects with LSRs): 8
Number of SAEs (Cohort 1 (5-day), in 2 subjects, none considered related to study drug): 3
Crusting grade 0, n/N subjects (Day 1, Cohort 1 (5-day)): 62/67
Crusting grade 1, n/N subjects (Day 1, Cohort 1 (5-day)): 5/67
Crusting grade 2, n/N subjects (Day 1, Cohort 1 (5-day)): 0
Crusting grade 3, n/N subjects (Day 1, Cohort 1 (5-day)): 0
Crusting grade 4, n/N subjects (Day 1, Cohort 1 (5-day)): 0
Erosion/Ulceration grade 0, n/N subjects (Day 1, Cohort 1 (5-day)): 67/67
Erosion/Ulceration grade 1, n/N subjects (Day 1, Cohort 1 (5-day)): 0
Erosion/Ulceration grade 2, n/N subjects (Day 1, Cohort 1 (5-day)): 0
Erosion/Ulceration grade 3, n/N subjects (Day 1, Cohort 1 (5-day)): 0
Erosion/Ulceration grade 4, n/N subjects (Day 1, Cohort 1 (5-day)): 0
Erythema grade 0, n/N subjects (Day 1, Cohort 1 (5-day)): 56/67
Erythema grade 1, n/N subjects (Day 1, Cohort 1 (5-day)): 11/67
Erythema grade 2, n/N subjects (Day 1, Cohort 1 (5-day)): 0
Erythema grade 3, n/N subjects (Day 1, Cohort 1 (5-day)): 0
Erythema grade 4, n/N subjects (Day 1, Cohort 1 (5-day)): 0
Flaking/Scaling grade 0, n/N subjects (Day 1, Cohort 1 (5-day)): 55/67
Flaking/Scaling grade 1, n/N subjects (Day 1, Cohort 1 (5-day)): 12/67
Flaking/Scaling grade 2, n/N subjects (Day 1, Cohort 1 (5-day)): 0
Flaking/Scaling grade 3, n/N subjects (Day 1, Cohort 1 (5-day)): 0
Flaking/Scaling grade 4, n/N subjects (Day 1, Cohort 1 (5-day)): 0
Swelling grade 0, n/N subjects (Day 1, Cohort 1 (5-day)): 67/67
Swelling grade 1, n/N subjects (Day 1, Cohort 1 (5-day)): 0
Swelling grade 2, n/N subjects (Day 1, Cohort 1 (5-day)): 0
Swelling grade 3, n/N subjects (Day 1, Cohort 1 (5-day)): 0
Swelling grade 4, n/N subjects (Day 1, Cohort 1 (5-day)): 0
Vesiculation/Pustulation grade 0, n/N subjects (Day 1, Cohort 1 (5-day)): 67/67
Vesiculation/Pustulation grade 1, n/N subjects (Day 1, Cohort 1 (5-day)): 0
Vesiculation/Pustulation grade 2, n/N subjects (Day 1, Cohort 1 (5-day)): 0
Vesiculation/Pustulation grade 3, n/N subjects (Day 1, Cohort 1 (5-day)): 0
Vesiculation/Pustulation grade 4, n/N subjects (Day 1, Cohort 1 (5-day)): 0
Crusting grade 0, n/N subjects (Day 2, Cohort 1 (5-day)): 64/67
Crusting grade 1, n/N subjects (Day 2, Cohort 1 (5-day)): 2/67
Crusting grade 2, n/N subjects (Day 2, Cohort 1 (5-day)): 1/67
Crusting grade 3, n/N subjects (Day 2, Cohort 1 (5-day)): 0
Crusting grade 4, n/N subjects (Day 2, Cohort 1 (5-day)): 0
Erosion/Ulceration grade 0, n/N subjects (Day 2, Cohort 1 (5-day)): 67/67
Erosion/Ulceration grade 1, n/N subjects (Day 2, Cohort 1 (5-day)): 0
Erosion/Ulceration grade 2, n/N subjects (Day 2, Cohort 1 (5-day)): 0
Erosion/Ulceration grade 3, n/N subjects (Day 2, Cohort 1 (5-day)): 0
Erosion/Ulceration grade 4, n/N subjects (Day 2, Cohort 1 (5-day)): 0
Erythema grade 0, n/N subjects (Day 2, Cohort 1 (5-day)): 44/67
Erythema grade 1, n/N subjects (Day 2, Cohort 1 (5-day)): 20/67
Erythema grade 2, n/N subjects (Day 2, Cohort 1 (5-day)): 3/67
Erythema grade 3, n/N subjects (Day 2, Cohort 1 (5-day)): 0
Erythema grade 4, n/N subjects (Day 2, Cohort 1 (5-day)): 0
Flaking/Scaling grade 0, n/N subjects (Day 2, Cohort 1 (5-day)): 51/67
Flaking/Scaling grade 1, n/N subjects (Day 2, Cohort 1 (5-day)): 15/67
Flaking/Scaling grade 2, n/N subjects (Day 2, Cohort 1 (5-day)): 1/67
Flaking/Scaling grade 3, n/N subjects (Day 2, Cohort 1 (5-day)): 0
Flaking/Scaling grade 4, n/N subjects (Day 2, Cohort 1 (5-day)): 0
Swelling grade 0, n/N subjects (Day 2, Cohort 1 (5-day)): 67/67
Swelling grade 1, n/N subjects (Day 2, Cohort 1 (5-day)): 0
Swelling grade 2, n/N subjects (Day 2, Cohort 1 (5-day)): 0
Swelling grade 3, n/N subjects (Day 2, Cohort 1 (5-day)): 0
Swelling grade 4, n/N subjects (Day 2, Cohort 1 (5-day)): 0
Vesiculation/Pustulation grade 0, n/N subjects (Day 2, Cohort 1 (5-day)): 67/67
Vesiculation/Pustulation grade 1, n/N subjects (Day 2, Cohort 1 (5-day)): 0
Vesiculation/Pustulation grade 2, n/N subjects (Day 2, Cohort 1 (5-day)): 0
Vesiculation/Pustulation grade 3, n/N subjects (Day 2, Cohort 1 (5-day)): 0
Vesiculation/Pustulation grade 4, n/N subjects (Day 2, Cohort 1 (5-day)): 0
Crusting grade 0, n/N subjects (Day 3, Cohort 1 (5-day)): 63/67
Crusting grade 1, n/N subjects (Day 3, Cohort 1 (5-day)): 3/67
Crusting grade 2, n/N subjects (Day 3, Cohort 1 (5-day)): 1/67
Crusting grade 3, n/N subjects (Day 3, Cohort 1 (5-day)): 0
Crusting grade 4, n/N subjects (Day 3, Cohort 1 (5-day)): 0
Erosion/Ulceration grade 0, n/N subjects (Day 3, Cohort 1 (5-day)): 66/67
Erosion/Ulceration grade 1, n/N subjects (Day 3, Cohort 1 (5-day)): 1/67
Erosion/Ulceration grade 2, n/N subjects (Day 3, Cohort 1 (5-day)): 0
Erosion/Ulceration grade 3, n/N subjects (Day 3, Cohort 1 (5-day)): 0
Erosion/Ulceration grade 4, n/N subjects (Day 3, Cohort 1 (5-day)): 0
Erythema grade 0, n/N subjects (Day 3, Cohort 1 (5-day)): 32/67
Erythema grade 1, n/N subjects (Day 3, Cohort 1 (5-day)): 24/67
Erythema grade 2, n/N subjects (Day 3, Cohort 1 (5-day)): 10/67
Erythema grade 3, n/N subjects (Day 3, Cohort 1 (5-day)): 1/67
Erythema grade 4, n/N subjects (Day 3, Cohort 1 (5-day)): 0
Flaking/Scaling grade 0, n/N subjects (Day 3, Cohort 1 (5-day)): 46/67
Flaking/Scaling grade 1, n/N subjects (Day 3, Cohort 1 (5-day)): 14/67
Flaking/Scaling grade 2, n/N subjects (Day 3, Cohort 1 (5-day)): 5/67
Flaking/Scaling grade 3, n/N subjects (Day 3, Cohort 1 (5-day)): 2/67
Flaking/Scaling grade 4, n/N subjects (Day 3, Cohort 1 (5-day)): 0
Swelling grade 0, n/N subjects (Day 3, Cohort 1 (5-day)): 67/67
Swelling grade 1, n/N subjects (Day 3, Cohort 1 (5-day)): 0
Swelling grade 2, n/N subjects (Day 3, Cohort 1 (5-day)): 0
Swelling grade 3, n/N subjects (Day 3, Cohort 1 (5-day)): 0
Swelling grade 4, n/N subjects (Day 3, Cohort 1 (5-day)): 0
